Laboratory results from BindingDB's records for patent US9290451 (Hoffmann-La Roche Inc, 2016).

Experiments:
Cannabinoid receptor 1 = Cannabinoid receptor 1 (Homo sapiens, UniProt P21554); assay: cAMP Assay; settings: 37 °C
Protocol: (§1) CHO cells expressing human CB1 or CB2 receptors are seeded 17-24 hours prior to the experiment 50.000 cells per well in a black 96 well plate with flat clear bottom (Corning Costar #3904) in DMEM (Invitrogen No. 31331), 1×HT supplement, with 10% fetal calf serum and incubated at 5% CO2 and 37° C. in a humidified incubator. The growth medium was exchanged with Krebs Ringer Bicarbonate buffer with 1 mM IBMX and incubated at 30° C. for 30 min Compounds were added to a final assay volume of 100 ul and incubated for 30 min at 30° C. Using the cAMP-Nano-TRF detection kit the assay (Roche Diagnostics) was stopped by the addition of 50 ul lysis reagent (Tris, NaCl, 1.5% Triton X100, 2.5% NP40, 10% NaN3) and 50 ul detection solutions (20 uM mAb Alexa700-cAMP 1:1, and 48 uM Ruthenium-2-AHA-cAMP) and shaken for 2 h at room temperature. The time-resolved energy transfer is measured by a TRF reader (Evotec Technologies GmbH), equipped with a ND:YAG laser as excitation source. The plate is measured twice with the excitation at 355 nm and at the emission with a delay of 100 ns and a gate of 100 ns, total exposure time 10 s at 730 (bandwidth 30 nm) or 645 nm (bandwidth 75 nm), respectively. The FRET signal is calculated.

Cannabinoid receptor 2 = Cannabinoid receptor 2 (Homo sapiens, UniProt P34972); assay: cAMP Assay; settings: 37 °C
Protocol: as §1

Sequence of Cannabinoid receptor 2 (P34972 whole entry): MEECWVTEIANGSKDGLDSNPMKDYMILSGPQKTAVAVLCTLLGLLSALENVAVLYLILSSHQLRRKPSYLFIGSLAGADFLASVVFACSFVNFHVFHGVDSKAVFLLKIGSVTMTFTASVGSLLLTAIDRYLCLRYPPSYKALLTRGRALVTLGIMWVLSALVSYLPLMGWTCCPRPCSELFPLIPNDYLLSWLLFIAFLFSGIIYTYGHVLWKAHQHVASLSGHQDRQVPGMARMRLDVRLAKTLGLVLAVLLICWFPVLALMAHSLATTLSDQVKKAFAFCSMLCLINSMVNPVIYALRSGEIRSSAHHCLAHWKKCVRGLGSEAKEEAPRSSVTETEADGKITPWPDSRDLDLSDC
Sequence of Cannabinoid receptor 1 (P21554 whole entry): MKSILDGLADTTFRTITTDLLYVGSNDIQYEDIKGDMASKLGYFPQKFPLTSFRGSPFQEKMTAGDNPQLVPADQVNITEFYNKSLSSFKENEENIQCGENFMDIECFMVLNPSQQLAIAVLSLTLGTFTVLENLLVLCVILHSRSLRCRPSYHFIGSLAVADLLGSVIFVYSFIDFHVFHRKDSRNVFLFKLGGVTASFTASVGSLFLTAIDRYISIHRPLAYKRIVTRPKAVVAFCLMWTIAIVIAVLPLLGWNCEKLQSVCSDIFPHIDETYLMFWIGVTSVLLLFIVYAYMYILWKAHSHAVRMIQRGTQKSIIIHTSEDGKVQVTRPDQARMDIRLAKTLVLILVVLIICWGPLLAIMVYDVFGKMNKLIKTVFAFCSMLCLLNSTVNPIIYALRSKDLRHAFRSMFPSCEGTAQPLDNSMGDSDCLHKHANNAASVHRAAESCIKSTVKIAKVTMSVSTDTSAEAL

Structure (SMILES)	EC50 (Cannabinoid receptor 1) [nM]	EC50 (Cannabinoid receptor 2) [nM]
O=C(c1ccc(C2CCCC2)c(OCC2CC2)n1)N1CCS(=O)(=O)CC1 [US9290451, 39]	> 10000	303
O=C(c1ccc(C2CC2)c(-c2cccc(Cl)c2)n1)N1CCS(=O)(=O)CC1 [US9290451, 48]	> 10000	477
CC(C)(CO)NC(=O)c1ccc(NC2CC2)c(OCC2CC2)n1 [US9290451, 159]	> 10000	780
Cc1cnc(C(C)(C)NC(=O)c2ccc(N3CC(F)(F)C3)c(OCC3CC3)n2)s1 [US9290451, 353]	> 10000	4.9
